According to ChEMBL document CHEMBL5625249, “Optimization and antifungal activity of quinoline derivatives linked to chalcone moiety combined with FLC against Candida albicans” (Eur J Med Chem, 2023):

Assays:
Assay type in all cases: functional
[1] = system: Candida albicans; assay: Antifungal activity against FLC-sensitive Candida albicans SC5314 measured after 24 hrs by microdilution method
[2] = system: Candida albicans; assay: Synergistic antifungal activity against FLC-sensitive Candida albicans SC5314 measured after 24 hrs in presence of fluconazole by microdilution method
[3] = system: Candida albicans; assay: Antifungal activity against Clinical FLC-resistant Candida albicans 23 measured after 24 hrs by microdilution method
[4] = system: Candida albicans; assay: Synergistic antifungal activity against Clinical FLC-resistant Candida albicans 23 measured after 24 hrs in presence of fluconazole by microdilution method
[5] = system: Candida albicans; assay: Synergistic antifungal activity against FLC-sensitive Candida albicans SC5314 assessed as fractional inhibitory concentration index measured after 24 hrs in presence of fluconazole by microdilution method
[6] = system: Candida albicans; assay: Synergistic antifungal activity against Clinical FLC-resistant Candida albicans 23 assessed as fractional inhibitory concentration index measured after 24 hrs in presence of fluconazole by microdilution method

SMILES | MIC80 [1] | MIC80 [2] | MIC80 [3] | MIC80 [4] | fractional inhibitory concentration index (FICI) [5] | fractional inhibitory concentration index (FICI) [6]
CN1CCN(c2nc3ccccc3cc2/C=C/C(=O)c2ccc(N3CCN(Cc4ccc(F)c(F)c4)CC3)cc2)CC1 | > 40 µg/mL | 2.06 µg/mL | > 40 µg/mL | 6.18 µg/mL | 0.38 | 0.15
CN1CCN(c2nc3ccccc3cc2/C=C/C(=O)c2ccc(N3CCN(C(=O)c4ccc(Cl)cc4)CC3)cc2)CC1 | > 40 µg/mL | 0.64 µg/mL | > 40 µg/mL | 1.49 µg/mL | 0.12 | 0.04
C=CC(=O)N1CCN(c2ccc(C(=O)/C=C/c3cc4ccccc4nc3N3CCN(C)CC3)cc2)CC1 | > 40 µg/mL | 4.11 µg/mL | > 40 µg/mL | 26.4 µg/mL | 0.76 | 0.66
C=C(C)C(=O)N1CCN(c2ccc(C(=O)/C=C/c3cc4ccccc4nc3N3CCN(C)CC3)cc2)CC1 | > 40 µg/mL | 3.71 µg/mL | > 40 µg/mL | 4.93 µg/mL | 0.69 | 0.12
COC(=O)CN1CCN(c2ccc(C(=O)/C=C/c3cc4ccccc4nc3N3CCN(C)CC3)cc2)CC1 | > 40 µg/mL | 14.1 µg/mL | > 40 µg/mL | > 40 µg/mL | 2.6 | –
CN1CCN(c2nc3ccccc3cc2/C=C/C(=O)c2ccc(N3CCN(Cc4ccc(C#N)cc4)CC3)cc2)CC1 | > 40 µg/mL | 4.73 µg/mL | > 40 µg/mL | 5.4 µg/mL | 0.88 | 0.14
CN1CCN(c2nc3ccccc3cc2/C=C/C(=O)c2ccc(N3CCN(C(=O)/C=C/c4ccccc4)CC3)cc2)CC1 | > 40 µg/mL | > 40 µg/mL | > 40 µg/mL | 5.83 µg/mL | – | 0.15
CC(=O)N1CCN(c2ccc(C(=O)/C=C/c3cc4ccccc4nc3N3CCN(C)CC3)cc2)CC1 | > 40 µg/mL | > 40 µg/mL | > 40 µg/mL | > 40 µg/mL | – | –
CN1CCN(c2nc3ccccc3cc2/C=C/C(=O)c2ccc(N3CCNCC3)cc2)CC1 | > 40 µg/mL | 2.56 µg/mL | > 40 µg/mL | 24 µg/mL | 0.47 | 0.6
CN1CCN(c2nc3ccccc3cc2/C=C/C(=O)c2ccc(N3CCN(S(=O)(=O)C4CC4)CC3)cc2)CC1 | > 40 µg/mL | 4.93 µg/mL | > 40 µg/mL | 6.03 µg/mL | 0.91 | 0.15
CN1CCN(c2nc3ccccc3cc2/C=C/C(=O)c2ccc(N3CCN(S(C)(=O)=O)CC3)cc2)CC1 | > 40 µg/mL | 28.1 µg/mL | > 40 µg/mL | 22.5 µg/mL | 5.2 | 0.56
CN1CCN(c2nc3ccccc3cc2/C=C/C(=O)c2ccc(N3CCN(C(=O)CCCl)CC3)cc2)CC1 | > 40 µg/mL | > 40 µg/mL | > 40 µg/mL | > 40 µg/mL | – | –
CN1CCN(c2nc3ccccc3cc2/C=C/C(=O)c2ccc(N3CCN(S(=O)(=O)c4ccc(F)cc4)CC3)cc2)CC1 | > 40 µg/mL | 18.3 µg/mL | > 40 µg/mL | 1.14 µg/mL | 3.39 | 0.03
CN1CCN(c2nc3ccccc3cc2/C=C/C(=O)c2ccc(N3CCN(S(=O)(=O)c4ccc(C(F)(F)F)cc4)CC3)cc2)CC1 | > 40 µg/mL | > 40 µg/mL | > 40 µg/mL | 1.15 µg/mL | – | 0.03
Cc1ccc(S(=O)(=O)N2CCN(c3ccc(C(=O)/C=C/c4cc5ccccc5nc4N4CCN(C)CC4)cc3)CC2)cc1 | > 40 µg/mL | > 40 µg/mL | > 40 µg/mL | 8.08 µg/mL | – | 0.2
Cc1ccc(C(=O)CN2CCN(c3ccc(C(=O)/C=C/c4cc5ccccc5nc4N4CCN(C)CC4)cc3)CC2)cc1 | > 40 µg/mL | 5.68 µg/mL | > 40 µg/mL | 33.4 µg/mL | 1.05 | 0.83
CN1CCN(c2nc3ccccc3cc2/C=C/C(=O)c2ccc(N3CCN(CC(=O)c4ccc(F)cc4)CC3)cc2)CC1 | > 40 µg/mL | 6.74 µg/mL | > 40 µg/mL | > 40 µg/mL | 1.25 | –
COc1ccc(C(=O)CN2CCN(c3ccc(C(=O)/C=C/c4cc5ccccc5nc4N4CCN(C)CC4)cc3)CC2)cc1OC | > 40 µg/mL | 5.5 µg/mL | > 40 µg/mL | 28.1 µg/mL | 1.01 | 0.7
CN1CCN(c2nc3ccccc3cc2/C=C/C(=O)c2ccc(N3CCN(S(=O)(=O)c4ccc([N+](=O)[O-])cc4)CC3)cc2)CC1 | > 40 µg/mL | 17.8 µg/mL | > 40 µg/mL | > 40 µg/mL | 3.3 | –
CN1CCN(c2nc3ccccc3cc2/C=C/C(=O)c2ccc(N3CCN(C(=O)c4ccc(F)cc4)CC3)cc2)CC1 | > 40 µg/mL | 0.88 µg/mL | > 40 µg/mL | 3.43 µg/mL | 0.16 | 0.09
CN1CCN(c2nc3ccccc3cc2/C=C/C(=O)c2ccc(N3CCN(S(=O)(=O)c4ccc(OC(F)(F)F)cc4)CC3)cc2)CC1 | > 40 µg/mL | 4.31 µg/mL | > 40 µg/mL | 4.05 µg/mL | 0.8 | 0.1
CN1CCN(c2nc3ccccc3cc2/C=C/C(=O)c2ccc(N3CCN(CC(=O)c4ccc(Cl)c(Cl)c4)CC3)cc2)CC1 | > 40 µg/mL | 17 µg/mL | > 40 µg/mL | 36.2 µg/mL | 3.14 | 0.91
CN1CCN(c2nc3ccccc3cc2/C=C/C(=O)c2ccc(N3CCN(S(=O)(=O)c4ccc(Cl)c(C(F)(F)F)c4)CC3)cc2)CC1 | > 40 µg/mL | 5.31 µg/mL | > 40 µg/mL | 26.8 µg/mL | 0.98 | 0.67
